PMC5626011 (Bioorganic & Medicinal Chemistry Letters, 2017)

How the values were obtained:
[1] = tested on: recombinant Ebola virus Makona expressing ZsGreen (rEBOV/ZsG); assay type: cell-based
MARV (Ci67) = assay type: cell-based, Marburg virus (MARV)
EBOV (Makona) = assay type: cell-based, Ebola virus (EBOV)
SUDV (Gulu) = assay type: cell-based, Sudan virus (SUDV)

Row | SMILES | EC50 ([1]; read-out: EBOV EC50) [nM] | MARV EC50 (MARV (Ci67)) | EBOV EC50 (EBOV (Makona)) | SUDV EC50 (SUDV (Gulu)) | fold less potent than compound 1 [1] [fold]
1 | COc1nc(N)ncc1-c1cn(COCCO)cn1 [compound 1] | 2200 ± 300 | no detectable activity | no detectable activity | no detectable activity | 
2 | CCC(CC)COC(=O)[C@H](C)N[P@](=O)(OCCOCn1cnc(-c2cnc(N)nc2OC)c1)Oc1ccccc1 [compound 3] |  |  |  |  | ~10
